Assay results as given in patent US20250161254A1, “USE OF RETINOIDS FOR TREATMENT OF ATRIAL FIBRILLATION” (NEW YORK UNIVERSITY, priority 2022, published 2025).
Entries after “also recorded” stand apart in the source; their conditions may differ.

Columns and labels:
[1] = tested on: Mice deficient in ALDH1A2; conditions: maternal supplementation with oral ATRA; cited from earlier work
[2] = tested on: TAC banded mice; experiment: ECG dose-response of ATRA in TAC banded mice; format: in vivo
[3] = tested on: TAC banded mice; experiment: LA fibrosis burden in ATRA reversal study (delayed ATRA initiation); conditions: delayed treatment with ATRA, TAC banding
[4] = tested on: TAC banded hearts; experiment: Atrial arrhythmia inducibility by atrial burst pacing; format: in vivo, mice; conditions: TAC+ATRA hearts
[5] = tested on: dissociated neonatal rat cardiac fibroblasts; conditions: fibroblasts exposed to AngII; cited from earlier work
[6] = tested on: trans-aortic constriction (TAC) banded mice; experiment: Transthoracic echocardiography in TAC banded mice, ATRA protection study; format: in vivo
Protocol: (§1) TAC banding creates a fixed afterload obstruction in the systemic circulation and serves as an excellent model for drug testing as the surgically-induced coarctation cannot be reversed by medical therapy.
The effect of TAC banding on left atrial function was measured next by using reservoir strain analysis. 8,30 Left atrial reservoir strain analysis is a sensitive modality to study left atrial mechanics of both relaxation (conduit strain) and contraction (contractile strain) in an angle-independent fashion.

[7] = tested on: trans-aortic constriction (TAC) banded mice; experiment: Electrocardiogram in TAC banded mice, ATRA protection study; format: in vivo; conditions: two weeks
Source text: as §1
On ECG, the P wave duration is a measure of atrial activation time, the PR interval is a measure of atrial-to-ventricular activation time that includes the atrio-ventricular nodal conduction time, the QRS duration is a measure of ventricular activation time, and the HR-corrected QT (QTc) interval is a measure of ventricular repolarization time. […] In TAC banded mice treated with vehicle control (TAC+V), the heart rate (HR) was increased, the P wave, QRS wave, and QTc interval durations were prolonged, and the PR interval was shortened compared to Sham groups.

[8] = tested on: TAC banded mice; experiment: Left atrial fibrosis burden, ImageJ analysis on Masson's trichrome stained sections; format: in vivo; conditions: for collagen volume fraction in LA: 10 mg/kg/day IP, two weeks
Source text: as §1

[9] = tested on: guinea pig HF model; conditions: cited from earlier work
[10] = tested on: TAC banded mice; experiment: ECG in ATRA reversal study (delayed ATRA initiation); format: in vivo; conditions: TAC+dATRA vs TAC+dV
[11] = tested on: TLR/NF-KB signaling; conditions: diabetic kidney; cited from earlier work
[12] = tested on: LA samples from TAC banded hearts; experiment: RNA-seq on LA samples from TAC+V and TAC+ATRA hearts; format: in vivo, mice
Source text: Activation of the AngII signaling pathway in the LA from pressure overload is a powerful inducer of inflammation, fibrosis, and Cx43 gap junction remodeling. Blockade of AngII signaling can reduce atrial fibrosis and partially rescued Cx43 remodeling. ^38,39

[13] = tested on: chick embryos; conditions: excess ATRA; cited from earlier work
[14] = tested on: TAC banded hearts; experiment: Optical mapping of Langendorff-perfused hearts; format: ex vivo, mice; conditions: Sham+V, TAC+V and TAC+ATRA hearts compared
Protocol: Optical mapping of Langendorff-perfused hearts from Sham+V, TAC+V, and TAC+ATRA hearts. (FIG. 6A) Representative left atrial activation maps at 37° C. Hearts were paced at 100 ms basic cycle length (BCL) from the right atria. (FIG. 6B) Calculated LA conduction velocity (CV). (FIG. 6C) Calculated left ventricular CV (FIG. 6D) ECG tracing of sustained atrial arrythmia in TAC+V heart after atrial burst pacing protocol.^6 (FIG. 6E) Left atrial activation map of sustained atrial arrythmia shown in panel (FIG. 6D). Isochrones are drawn 1 ms apart. Data represent mean+S.E.M. n=4-5 per group. One-way ANOVA was used followed by Tukey's test for multiple comparisons to compare differences between experimental groups. * p-value<0.05, ** p-value<0.005, *** p-value<0.001, **** p-value<0.0001

[15] = tested on: CYP26; conditions: rodents; cited from earlier work
[16] = tested on: ALDHIA1 and ALDH1A2; conditions: in vivo; cited from earlier work
[17] = TAC+ATRA vs TAC+V over the dose range
[18] = TAC+ATRA vs TAC+V, 10 mg/kg/day IP, two weeks, 10 mg/kg/day
[19] = TAC+ATRA vs TAC+V, ATRA 10 mg/kg/day IP
[20] = GO / REACTOME analysis of normalized genes
[21] = TAC+ATRA versus TAC+V LA, P<0.05

Q: What does the source list for `CC1=C(/C=C/C(C)=C/C=C/C(C)=C/C(=O)O)C(C)(C)CCC1` [ATRA, all-trans retinoic acid]?
A: atrial defects [1]: rescue the atrial defects; P wave duration shortening ([2]; 20 mg/kg dose compared with 10): no further shortening; reduction of P wave prolongation, dose dependence ([2]; 2, 5, 10, 20 mg/kg daily IP, two weeks): dose-dependent fashion; ventricular ectopy (potential cardiotoxicity) ([2]; ATRA 20 mg/kg daily IP): increased ventricular ectopy; PR interval [2, 17]: no significant dose-dependent effect; also recorded: not significantly changed; QRS duration [2, 17]: no significant dose-dependent effect; also recorded: not significantly changed; heart rate [2, 17]: no significant dose-dependent effect; also recorded: not significantly changed; ATRA dose of maximal P wave duration shortening ([2]; daily IP, two weeks): 10 m/kg; interstitial and perivascular fibrosis [3]: reverses; hearts with sustained atrial arrhythmia (lasting >30 sec) after atrial burst pacing [4]: 0 out of 3; TGF-β production [5]: reduces; collagen secretion [5]: reduces; proliferation [5]: reduces; echocardiographic measurements of the LA and LV ([6]; Sham+ATRA vs Sham+V, normal pressure conditions): no differences; LV fractional shortening (FS) [6, 18]: equally reduced; LV longitudinal strain [6, 18]: equally reduced; left atrial mechanics (reservoir strain) [6, 18]: significant improvement; also recorded: significantly improved; left ventricular hypertrophy (LV wall thickness) [6, 18]: increased in both TAC+V and TAC+ATRA cohorts; ECG measurements ([7]; Sham+ATRA vs Sham+V, normal pressure conditions, 10 mg/kg/day IP): no differences; HR-corrected QT (QTc) interval [7, 19]: prolonged equally; also recorded: unchanged; P wave duration [7, 19]: prevents P wave prolongation; also recorded: reduced to normal levels; PR interval [7, 19]: does not significantly alter; also recorded: unchanged; QRS duration [7, 19]: prolonged equally; also recorded: unchanged; heart rate (HR) [7, 19]: unchanged; collagen volume fraction in LA ([8]; Sham+ATRA): 5.3±0.1%; left atrial interstitial and perivascular fibrosis ([8]; TAC+ATRA vs TAC+V): reduced; also recorded: limits; collagen volume fraction in LA ([8]; TAC+ATRA): 8.3±0.6%; left ventricular systolic function [9]: improve; ventricular fibrosis [9]: reduce; P wave duration ([10]; 10 mg/kg/day IP started two weeks post-TAC, for two weeks, 10 mg/kg/day): significantly reduces; PR interval ([10]; delayed treatment): not significantly different; also recorded: unchanged; QRS duration ([10]; delayed treatment): not significantly different; also recorded: unchanged; QTc interval ([10]; delayed treatment): not significantly different; also recorded: unchanged; heart rate (HR) ([10]; delayed treatment): unchanged; production of inflammatory cytokines, chemokines, adhesion molecules and growth factors [11]: block cytokine, chemokine, and growth factor production; also recorded: blocks production; pathways of ECM production, pro-inflammatory signaling and vasoconstriction [12, 20]: significantly downregulated; pathways of mitochondrial energy production and cardiac/atrial development [12, 20]: significantly upregulated; left atrial Scn5a expression ([12]; TAC banded hearts): increases; differentially expressed transcripts [12, 21]: 4133 transcripts; transcripts downregulated [12, 21]: 2058 transcripts; transcripts upregulated [12, 21]: 2075 transcripts; DEGs moving in reciprocal direction to the [TAC vs Sham] dataset (normalization) ([12]; [TAC+ATRA vs TAC+V] dataset): 1987 DEGs; expression of PDGF-A and PDGF-B ([12]; pressure overloaded LA): reduced expression; expression of TLR2, NF-KB signaling components, NLRP3 and IL-1b ([12]; pressure overloaded LA): downregulated; expression of angiotensin converting enzyme (ACE) ([12]; pressure overloaded LA): significantly downregulated; atrial size [13]: developed enlarged atria; left ventricular CV [14]: not significantly different

Q: For `CCC(CC)C(c1ccc(Nc2nc3ccccc3s2)cc1)n1cncn1` (stereo not shown) [talarozole], which ATRA levels [15] is on record?
A: effectively increase ATRA levels

Q: Which ATRA biosynthesis [16] does the source give for `O=C(NCCCCCCCCNC(=O)C(Cl)Cl)C(Cl)Cl` [WIN18446] here?
A: efficiently block ATRA biosynthesis
